Consider 23 molecules from patent US7057052B2, “Heterocyclic quinones as pharmaceutical agents” (Duke University, priority 2002, dated 2006).

Like-named read-outs stand apart in the source and are kept apart here.

Format in all cases: biochemical
In one test the target is T1, Cdc25A (Homo sapiens, UniProt P30304).
T1 sequence (P30304 1-524): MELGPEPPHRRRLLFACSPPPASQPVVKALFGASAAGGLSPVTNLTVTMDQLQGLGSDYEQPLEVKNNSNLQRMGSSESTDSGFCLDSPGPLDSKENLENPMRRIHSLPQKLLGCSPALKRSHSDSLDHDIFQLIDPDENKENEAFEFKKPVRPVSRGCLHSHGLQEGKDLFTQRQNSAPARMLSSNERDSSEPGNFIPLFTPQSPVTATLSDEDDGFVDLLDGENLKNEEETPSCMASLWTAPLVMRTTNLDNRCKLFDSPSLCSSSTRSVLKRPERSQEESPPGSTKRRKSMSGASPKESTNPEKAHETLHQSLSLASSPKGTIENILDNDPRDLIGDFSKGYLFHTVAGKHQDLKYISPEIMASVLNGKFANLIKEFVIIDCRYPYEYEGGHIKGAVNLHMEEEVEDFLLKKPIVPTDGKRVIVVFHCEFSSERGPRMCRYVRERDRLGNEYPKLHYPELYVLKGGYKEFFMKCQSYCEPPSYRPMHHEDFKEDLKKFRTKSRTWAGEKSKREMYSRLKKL
As to the kind of experiment: Cdc25A phosphatase inhibition screen at 50 μM. The settings on record: read-out: Percent Inhibition at 50 uM compound, Cdc25 A. Here is the method:
(§1) Using procedures known to those skilled in the art, the compounds listed in Table 3 were screened against Cdc25A, Cdc25B, and Cdc25C at 50 μM. […] To analyze these effects further, the compounds were then screened against Cdc25B in a 3 pt. IC-50, using 1, 7 and 50 μM. Several of the compounds were also screened with an 8 pt. IC-50 process, using 0.1–10 μM, allowing determination of Hill slopes.

In a further test the target is T2, Cdc25B (Homo sapiens, UniProt P30305).
T2 sequence (P30305 1-580): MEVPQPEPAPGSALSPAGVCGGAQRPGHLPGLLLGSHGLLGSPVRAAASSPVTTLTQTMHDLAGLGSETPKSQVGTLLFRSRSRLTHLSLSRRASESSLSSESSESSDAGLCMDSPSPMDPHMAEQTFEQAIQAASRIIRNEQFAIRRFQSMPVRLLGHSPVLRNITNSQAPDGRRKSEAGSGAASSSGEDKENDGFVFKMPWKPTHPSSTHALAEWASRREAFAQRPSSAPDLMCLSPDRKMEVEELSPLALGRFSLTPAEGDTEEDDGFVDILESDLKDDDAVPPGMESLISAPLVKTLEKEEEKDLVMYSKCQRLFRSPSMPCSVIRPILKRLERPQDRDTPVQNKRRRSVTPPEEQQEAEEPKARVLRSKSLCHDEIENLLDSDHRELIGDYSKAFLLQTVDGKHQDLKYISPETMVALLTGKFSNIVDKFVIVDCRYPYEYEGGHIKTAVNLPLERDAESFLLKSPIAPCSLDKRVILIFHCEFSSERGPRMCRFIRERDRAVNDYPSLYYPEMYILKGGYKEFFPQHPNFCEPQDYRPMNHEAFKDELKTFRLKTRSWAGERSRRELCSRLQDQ
As to the kind of experiment: Cdc25B phosphatase inhibition (50 μM screen, 3 pt. and 8 pt. IC-50). The note with it: for IC50: Cdc25B; for inhibition at 50 µM: read-out: Percent Inhibition at 50 uM compound, Cdc25 B. Here is the method:
as §1

For a further test, the target named is T3, Cdc25C (Homo sapiens, UniProt P30307).
T3 sequence (P30307 1-473): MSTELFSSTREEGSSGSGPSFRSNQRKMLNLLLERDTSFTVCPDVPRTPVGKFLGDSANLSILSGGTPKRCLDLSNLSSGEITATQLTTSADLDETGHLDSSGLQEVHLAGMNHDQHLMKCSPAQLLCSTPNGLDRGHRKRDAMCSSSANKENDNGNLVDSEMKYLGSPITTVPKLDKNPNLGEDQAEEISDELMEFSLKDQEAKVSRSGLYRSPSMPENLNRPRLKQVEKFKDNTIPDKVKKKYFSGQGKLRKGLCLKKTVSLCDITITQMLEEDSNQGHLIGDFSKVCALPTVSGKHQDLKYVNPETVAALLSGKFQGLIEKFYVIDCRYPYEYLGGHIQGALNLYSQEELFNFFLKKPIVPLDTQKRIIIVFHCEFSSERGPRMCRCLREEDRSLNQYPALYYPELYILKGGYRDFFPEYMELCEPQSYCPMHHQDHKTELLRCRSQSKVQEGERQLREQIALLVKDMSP
As to the kind of experiment: Cdc25C phosphatase inhibition screen at 50 μM. The settings on record: read-out: Percent Inhibition at 50 uM compound, Cdc25 C. Here is the method:
as §1

[1] abbreviates: 3 pt. IC-50 using 1, 7 and 50 μM, read-out: IC50 (3 pt).
[2] abbreviates: 8 pt. IC-50 using 0.1–10 μM, read-out: IC50 (8 pt).

Turning to `O=C1C=C(O)C(=O)C(c2c[nH]c3ccccc23)=C1O` [2A, 2,5-dihydroxy-3(1H-indol-3-yl)-[1,4]-benzoquinone], the inhibition at 50 µM on Cdc25A was found to be 55%; on Cdc25B it was 75%; on Cdc25C, 69%. In addition, the IC50 at Cdc25B (setting [1]) worked out at 14.2 µM; on Cdc25B (setting [2]), 16.5 µM.

On to `Cn1cc(C2=C(O)C(=O)C=C(O)C2=O)c2ccccc21` [2B, 2,5-dihydroxy-3-(1-methyl-1H-indol-3-yl)-[1,4]-benzoquinone], for which the inhibition at 50 µM stood at 63% at Cdc25A, 42% on Cdc25B and 19% on Cdc25C. In addition, the IC50 at Cdc25B (setting [1]) came out at 185 µM.

`Cc1[nH]c2ccccc2c1C1=C(O)C(=O)C=C(O)C1=O` [2C, 2,5-dihydroxy-3-(2-methyl-1H-indol-3-yl)-[1,4]-benzoquinone]: the inhibition at 50 µM stood at 35% on Cdc25A, 9% at Cdc25B and 5% at Cdc25C. The IC50 on Cdc25B (setting [1]) was 138 µM.

As for `CCc1[nH]c2ccccc2c1C1=C(O)C(=O)C=C(O)C1=O` [2D, 2,5-dihydroxy-3-(2-ethyl-1H-indol-3-yl)-[1,4]-benzoquinone], the inhibition at 50 µM on Cdc25A came to 51%; on Cdc25B it was 36%; on Cdc25C it was 14%. For the same molecule, on Cdc25B (setting [1]), the IC50 is 33.4 µM.

As to `O=C1C=C(O)C(=O)C(c2c(C3CC3)[nH]c3ccccc23)=C1O` [2E, 2,5-dihydroxy-3-(2-cyclopropyl-1H-indol-3-yl)-[1,4]-benzoquinone], the inhibition at 50 µM came out at 79% at Cdc25A, 32% at Cdc25B and 0% at Cdc25C. In addition, the IC50 was 2.3 µM at Cdc25B (setting [1]) and 24.4 µM at Cdc25B (setting [2]).

Regarding `CC(C)c1[nH]c2ccccc2c1C1=C(O)C(=O)C=C(O)C1=O` [2F, 2,5-dihydroxy-3-(2-isopropyl-1H-indol-3-yl)-[1,4]-benzoquinone], the inhibition at 50 µM on Cdc25A turned out to be 58%; at Cdc25B, 13%; at Cdc25C, 0%. The IC50 at Cdc25B (setting [1]) is 8.3 µM.

For `CC1(c2[nH]c3ccccc3c2C2=C(O)C(=O)C=C(O)C2=O)CC1` [2G, 2,5-dihydroxy-3-[2-(1-methylcycloproyl)-1H-indol-3-yl]-[1,4]-benzoquinone], the inhibition at 50 µM stood at 49% on Cdc25A, 17% on Cdc25B and 0% at Cdc25C. On Cdc25B (setting [1]), the IC50 is 3.6 µM.

In the case of `CC(C)(C)c1[nH]c2ccccc2c1C1=C(O)C(=O)C=C(O)C1=O` [2H, 2,5-dihydroxy-3-(2-tert-butyl-1H-indol-3-yl)-[1,4]-benzoquinone], the values for the inhibition at 50 µM at Cdc25A, at Cdc25B and at Cdc25C were 31%, 11% and 0%, respectively. Also, the IC50 on Cdc25B (setting [1]) was 13.9 µM.

For the molecule `Cc1ccc2[nH]cc(C3=C(O)C(=O)C(c4c(C(C)(C)C)[nH]c5ccccc45)=C(O)C3=O)c2c1` [10B, 2-(2-tert-butyl-1H-indol-3-yl)-3,6-dihydroxy-5-(5-methyl-1H-indol-3-yl)-[1,4]-benzoquinone], the 50% inhibitory concentration (IC50) at Cdc25B (setting [1]) was found to be 7.2 µM.

Turning to `CC(C)(C)c1[nH]c2ccccc2c1C1=C(O)C(=O)C(c2c[nH]c3cc(F)ccc23)=C(O)C1=O` [10C, 2-(2-tert-butyl-1H-indol-3-yl)-3,6-dihydroxy-5-(6-fluoro-1H-indol-3-yl)-[1,4]-benzoquinone], the IC50 at Cdc25B (setting [1]) was 5.3 µM.

With `Cc1ccc2c(C3=C(O)C(=O)C(c4c(C(C)(C)C)[nH]c5ccccc45)=C(O)C3=O)c[nH]c2c1` [10D, 2-(2-tert-butyl-1H-indol-3-yl)-3,6-dihydroxy-5-(6-methyl-1H-indol-3-yl)-[1,4]-benzoquinone], on Cdc25B (setting [1]), the IC50 amounted to 5.3 µM.

Take `Cc1cccc2c(C3=C(O)C(=O)C(c4c(C(C)(C)C)[nH]c5ccccc45)=C(O)C3=O)c[nH]c12` [10E, 2-(2-tert-butyl-1H-indol-3-yl)-3,6-dihydroxy-5-(7-methyl-1H-indol-3-yl)-[1,4]-benzoquinone]: the IC50 on Cdc25B (setting [1]) amounted to 4.8 µM.

For `CC(C)(C)c1[nH]c2ccccc2c1C1=C(O)C(=O)C(c2c[nH]c3c(C(C)(C)C)cccc23)=C(O)C1=O` [10F, 2-(2-tert-butyl-1H-indol-3-yl)-3,6-dihydroxy-5-(7-tert-butyl-1H-indol-3-yl)-[1,4]-benzoquinone], the IC50 on Cdc25B (setting [1]) worked out at 0.9 µM.

Regarding `Cc1ccc2[nH]c(C)c(C3=C(O)C(=O)C(c4c(C(C)(C)C)[nH]c5ccccc45)=C(O)C3=O)c2c1` [10G, 2-(2-tert-butyl-1H-indol-3-yl)-3,6-dihydroxy-5-(2,5-dimethyl-1H-indol-3-yl)-[1,4]-benzoquinone], the IC50 on Cdc25B (setting [1]) amounted to 14.6 µM.

On to `COc1ccc2[nH]c(C)c(C3=C(O)C(=O)C(c4c(C(C)(C)C)[nH]c5ccccc45)=C(O)C3=O)c2c1` [10H, 2-(2-tert-butyl-1H-indol-3-yl)-3,6-dihydroxy-5-(2-methyl-5-methoxy-1H-indol-3-yl)-[1,4]-benzoquinone], for which the IC50 on Cdc25B (setting [1]) came out at 11.5 µM.

In the case of `Cc1[nH]c2ccc(Cl)cc2c1C1=C(O)C(=O)C(c2c(C(C)(C)C)[nH]c3ccccc23)=C(O)C1=O` [11A, 2-(2-tert-butyl-1H-indol-3-yl)-3,6-dihydroxy-5-(2-methyl-5-chloro-1H-indol-3-yl)-[1,4]-benzoquinone], the IC50 on Cdc25B (setting [1]) was found to be 8.4 µM.

On to `Cn1cc(C2=C(O)C(=O)C(c3ccccc3)=C(O)C2=O)c2ccccc21` [11B, 2,5-dihydroxy-3-(1-methyl-1H-indol-3-yl)-6-phenyl-[1,4]-benzoquinone], for which the IC50 on Cdc25B (setting [1]) was found to be 7.9 µM.

For `Cc1[nH]c2ccccc2c1C1=C(O)C(=O)C(c2c(C)[nH]c3ccccc23)=C(O)C1=O` [11C, 2,5-dihydroxy-3,6-bis(2-methyl-1H-indol-3-yl)l-[1,4]-benzoquinone], the IC50 on Cdc25B (setting [1]) was 15.7 µM.

With `Cc1[nH]c2ccccc2c1C1=C(O)C(=O)c2cccc(O)c2C1=O` [11D, 2,5-dihydoxy-3-(2-methyl-1H-indol-3-yl)-[1,4]naphthoquinone], on Cdc25B (setting [1]), the IC50 was determined as 18 µM.

In the case of `CC(C)(C)c1[nH]c2ccccc2c1C1=C(O)C(=O)C(c2c(C(C)(C)C)[nH]c3ccccc23)=C(Cl)C1=O` [11E, 2,5-bis(2-tert-butyl-1H-indol-3-yl)-3-chloro-6-hydroxy-[1,4]-benzoquinone], at Cdc25B (setting [1]), the IC50 turned out to be 22.9 µM.

In the case of `CC(C)(C)c1[nH]c2ccccc2c1C1=C(Cl)C(=O)C(c2c[nH]c3ccccc23)=C(O)C1=O` [11F, 2-(2-tert-butyl-1H-indol-3-yl)-5-(1H-indol-3-yl)-3-chloro-6-hydroxy-[1,4]-benzoquinone], the IC50 on Cdc25B (setting [1]) was found to be 49.9 µM.

Consider `Cc1cccc2c(C3=C(O)C(=O)C(c4c(C(C)(C)C)[nH]c5ccccc45)=C(Cl)C3=O)c[nH]c12` [11G, 2-(2-tert-butyl-1H-indol-3-yl)-5-(7-methyl-1H-indol-3-yl)-3-chloro-6-hydroxy-[1,4]-benzoquinone], for which the IC50 at Cdc25B (setting [1]) worked out at 33.8 µM.

With `CC(C)(C)c1[nH]c2ccccc2c1C1=C(Cl)C(=O)C(c2c(-c3ccccc3)[nH]c3ccccc23)=C(O)C1=O` [11H, 2-(2-tert-butyl-1H-indol-3-yl)-5-(2-phenyl-1H-indol-3-yl)-3-chloro-6-hydroxy-[1,4]-benzoquinone], at Cdc25B (setting [1]), the IC50 was determined as 6.7 µM.

What is called inhibition is the drop in the measured response relative to a control, in per cent. Broadly, the IC50 is the concentration needed to halve the response being measured.
